# Measurements: patent US7687453B2, “Method for administering insulin to the buccal region” (Generex Pharmaceuticals Incorporated, priority 1998, dated 2010)
# Legend:
# blood glucose = test: Blood glucose after insulin injection vs oral insulin drops, fasted healthy non-diabetic volunteers (Example 1); type: in vivo, human; set-up: unit not given here; conditions: 10 units sub-cutaneous injection, avg of 5 fasted healthy volunteers
# Experimental: In one set of tests, five healthy non-diabetic human volunteers were tested with insulin, by injection. In another set of tests the volunteers were tested with insulin, taken orally. The volunteers fasted from midnight prior to the test, with no food being taken during the 4 hour study.
# (§1) On the first day, the volunteers received 10 units of insulin by injection (regular fast acting insulin, available from Eli Lilly). On the second day, the volunteers received 100 units (1 mL volume per drop, approximately 20 drops) of the above-prepared oral insulin (10 times the injection dose). In both tests, blood glucose levels were monitored every 15 minutes by Bayer's Glucometer Elite.
# meal glucose = test: Meal glucose, oral mixed micellar insulin vs injection, Type II diabetic volunteers (Example 12); type: in vivo, human; conditions: injection 10 units, avg of 10 Type II diabetics, meal 30 min after dosing
# Experimental: The mixed micellar formulation of Example 9 was tested in diabetic volunteers under controlled conditions to determine the oral insulin effect on meal glucose when compared to injected insulin.
# In one set of tests, ten Type II diabetic human volunteers who took insulin, by injection three times a day, were studied. In another set of tests the volunteers were tested with insulin, taken orally. The volunteers fasted from midnight prior to the tests, with food being taken 30 minutes after dosing. The meals were standard Sastacal 240 mL liquid diet approved by the Diabetic Society, containing 400 calories.
# as §1, with “units” for “units of”, “30” for “100”, “units” for “units (1 mL volume per drop, approximately 20 drops)”, “(3” for “(10”
substance,measurement,setting,value
"regular fast acting insulin: regular fast acting insulin, available from Eli Lilly, given by injection (10 units)",Blood glucose level,blood glucose; 0 min,5.8
same,Blood glucose level,blood glucose; 15 min,5.8
same,Blood glucose level,blood glucose; 30 min,5.4
same,Blood glucose level,blood glucose; 60 min,5.0
same,Blood glucose level,blood glucose; 75 min,4.6
same,Blood glucose level,blood glucose; 90 min,4.3
same,Blood glucose level,blood glucose; 120 min,3.8
same,Blood glucose level,blood glucose; 150 min,3.6
same,Blood glucose level,blood glucose; 180 min,3.4
same,Blood glucose level,blood glucose; 210 min,4.2
same,Blood glucose level,blood glucose; 240 min,4.5
same,Blood glucose levels,meal glucose; 0 min,8.7 mmol/L
same,Blood glucose levels,meal glucose; 15 min,8.8 mmol/L
same,Blood glucose levels,meal glucose; 30 min,8.9 mmol/L
same,Blood glucose levels,meal glucose; 45 min,10.1 mmol/L
same,Blood glucose levels,meal glucose; 60 min,11.8 mmol/L
same,Blood glucose levels,meal glucose; 75 min,11.8 mmol/L
same,Blood glucose levels,meal glucose; 90 min,12.2 mmol/L
same,Blood glucose levels,meal glucose; 105 min,11.2 mmol/L
same,Blood glucose levels,meal glucose; 120 min,10.4 mmol/L
same,Blood glucose levels,meal glucose; 135 min,8.4 mmol/L
same,Blood glucose levels,meal glucose; 150 min,7.3 mmol/L
same,Blood glucose levels,meal glucose; 165 min,6.5 mmol/L
same,Blood glucose levels,meal glucose; 180 min,4.3 mmol/L
